# Where two headings read alike, the source gives them in different places.
# Key:
# Assay type in all cases: cell-based
# Phytophthora infestans = conditions: single active compound, 7 days after inoculation
# Septoria tritici = experiment: Activity against leaf blotch on wheat caused by Septoria tritici in the microtiter test (Septtr); conditions: single active compound, day 7 after inoculation
# Pyrenophora teres = experiment: Activity against Pyrenophora teres in the microtiter test (Pyrnte); conditions: single active compound, day 7 after inoculation
# Fusarium culmorum = experiment: Activity against Fusarium culmorum in the microtiter test (Fusacu); conditions: single active compound, day 7 after inoculation
compound,measurement,setting,value
CCO[PH](=O)O [Fosetyl-Al],Observed efficacy [%],Phytophthora infestans; 16 ppm,35%
"Cc1cc(C2CC2)nc(Nc2ccccc2)n1 [Cyprodinil, (4-cyclopropyl-6-methylpyrimidin-2-yl)phenylamine]",Observed efficacy [%],Septoria tritici; 1 ppm,13%
"N#Cc1c(Cl)c(Cl)c(Cl)c(C#N)c1Cl [Chlorothalonil, 2,4,5,6-tetrachloroisophthalonitrile]",Observed efficacy [%],Septoria tritici; 0.25 ppm,46%
"C=CCSC(=O)n1c(N)c(-c2ccccc2C)c(=O)n1C(C)C [I.1, 5-amino-2-isopropyl-3-oxo-4-o-tolyl-2,3-dihydro-pyrazole-1-carbothioic acid ally ester]",Observed efficacy [%],Pyrenophora teres; 1 ppm,34%
same,Observed efficacy [%],Fusarium culmorum; 63 ppm,14%
same,Observed efficacy [%],Septoria tritici; 4 ppm,37%
same,Observed efficacy [%],Phytophthora infestans; 16 ppm,16%
same,Observed efficacy [%],Phytophthora infestans; 63 ppm,37%
"COC(=O)N(OC)c1ccccc1COc1ccn(-c2ccc(Cl)cc2)n1 [Pyraclostrobin, methyl N-{2-[1-(4-chlorophenyl)-1H-pyrazol-3-yloxymethyl]phenyl}(N-methoxy)carbamate]",Observed efficacy [%],Fusarium culmorum; 0.25 ppm,5%
"COC=C(C(=O)OC)c1ccccc1COc1cccc(C(F)(F)F)n1 [Picoxystrobin, methyl 3-methoxy-2-[2-(6-trifluoromethylpyridin-2-yloxymethyl)phenyl]-acrylate]",Observed efficacy [%],Pyrenophora teres; 0.016 ppm,31%
zinc propylenebis(dithiocarbamate) polymer [Propineb],Observed efficacy [%],Phytophthora infestans; 1 ppm,21%
